From the supplement of paper PMC5662764
± gives the standard deviation of the averaged measurements.

Experiments:
Assay in all cases: normalised growth rate inhibition (GR value) relative to DMSO control (GR (1 = untreated growth, 0 = cytostasis, <0 = cytotoxic)); higher = less growth inhibition
Conditions in all cases: 72 h
MCF7 = system: MCF7
Method: (§1)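 Breast cancer cell lines (BT-20, Hs 578T, MCF 10A, MCF7, MDA-MB-231, SK-BR-3) were plated in 384-well plates and treated 24 h later with drugs at six concentrations (0.04-10 µM). Viable cells were counted by Hoechst/dead-cell-stain imaging at 0 and 72 h. Counts were normalised to DMSO controls on the same plate to give the relative cell count and the growth-rate inhibition (GR) value; technical plate triplicates were averaged for each biological replicate.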

MDAMB231 = system: MDAMB231
Method: as §1

HS578T = system: HS578T
Method: as §1

SKBR3 = system: SKBR3
Method: as §1

BT20 = system: BT20
Method: as §1

MCF10A = system: MCF10A
Method: as §1

SMILES | normalised growth rate inhibition (MCF7; 0.04 µM) | normalised growth rate inhibition (MCF7; 0.12 µM) | normalised growth rate inhibition (MCF7; 0.37 µM) | normalised growth rate inhibition (MCF7; 1.11 µM) | normalised growth rate inhibition (MCF7; 3.33 µM) | normalised growth rate inhibition (MCF7; 10 µM) | normalised growth rate inhibition (MDAMB231; 0.04 µM) | normalised growth rate inhibition (MDAMB231; 0.12 µM) | normalised growth rate inhibition (MDAMB231; 0.37 µM) | normalised growth rate inhibition (MDAMB231; 1.11 µM) | normalised growth rate inhibition (MDAMB231; 3.33 µM) | normalised growth rate inhibition (MDAMB231; 10 µM) | normalised growth rate inhibition (HS578T; 0.04 µM) | normalised growth rate inhibition (HS578T; 0.12 µM) | normalised growth rate inhibition (HS578T; 0.37 µM) | normalised growth rate inhibition (HS578T; 1.11 µM) | normalised growth rate inhibition (HS578T; 3.33 µM) | normalised growth rate inhibition (HS578T; 10 µM) | normalised growth rate inhibition (SKBR3; 0.04 µM) | normalised growth rate inhibition (SKBR3; 0.12 µM) | normalised growth rate inhibition (SKBR3; 0.37 µM) | normalised growth rate inhibition (SKBR3; 1.11 µM) | normalised growth rate inhibition (SKBR3; 3.33 µM) | normalised growth rate inhibition (SKBR3; 10 µM) | normalised growth rate inhibition (BT20; 0.04 µM) | normalised growth rate inhibition (BT20; 0.12 µM) | normalised growth rate inhibition (BT20; 0.37 µM) | normalised growth rate inhibition (BT20; 1.11 µM) | normalised growth rate inhibition (BT20; 3.33 µM) | normalised growth rate inhibition (BT20; 10 µM) | normalised growth rate inhibition (MCF10A; 0.04 µM) | normalised growth rate inhibition (MCF10A; 0.12 µM) | normalised growth rate inhibition (MCF10A; 0.37 µM) | normalised growth rate inhibition (MCF10A; 1.11 µM) | normalised growth rate inhibition (MCF10A; 3.33 µM) | normalised growth rate inhibition (MCF10A; 10 µM)
Nc1cccc(-c2cc3c(Oc4cccc(O)c4)ncnc3[nH]2)c1 [TWS-119] | 1.06 ± 0.061 | 0.984 ± 0.053 | 0.991 ± 0.071 | 0.963 ± 0.079 | 0.616 ± 0.079 | -0.165 ± 0.1 | 0.975 ± 0.056 | 0.961 ± 0.07 | 0.929 ± 0.084 | 0.785 ± 0.056 | 0.619 ± 0.021 | 0.0363 ± 0.044 | 1.02 ± 0.014 | 0.9855 ± 0.0042 | 0.978 ± 0.011 | 0.8808 ± 0.0081 | 0.707 ± 0.057 | -0.081 ± 0.15 | 1.09 ± 0.077 | 0.989 ± 0.074 | 1.06 ± 0.044 | 1.02 ± 0.043 | 0.48 ± 0.095 | -0.212 ± 0.26 | 1.02 ± 0.034 | 0.994 ± 0.056 | 0.971 ± 0.055 | 0.885 ± 0.11 | 0.696 ± 0.096 | 0.0129 ± 0.081 | 1.02 ± 0.013 | 1.01 ± 0.011 | 1.02 ± 0.0082 | 1.02 ± 0.024 | 0.912 ± 0.11 | 0.0326 ± 0.084
O=C(Nc1cccc(Nc2ncc(Br)c(NCCc3cnc[nH]3)n2)c1)N1CCCC1 [BX-912] | 0.816 ± 0.053 | 0.866 ± 0.058 | 0.731 ± 0.17 | 0.459 ± 0.1 | 0.293 ± 0.063 | 0.0193 ± 0.03 | 0.903 ± 0.0098 | 0.901 ± 0.083 | 0.694 ± 0.32 | 0.404 ± 0.23 | 0.194 ± 0.14 | -0.0228 ± 0.27 | 0.967 ± 0.021 | 0.906 ± 0.045 | 0.756 ± 0.16 | 0.375 ± 0.042 | 0.143 ± 0.076 | -0.103 ± 0.14 | 0.724 ± 0.1 | 0.719 ± 0.089 | 0.175 ± 0.19 | -0.0702 ± 0.08 | -0.0412 ± 0.053 | -0.0312 ± 0.089 | 0.8964 ± 0.0089 | 0.943 ± 0.034 | 0.936 ± 0.034 | 0.939 ± 0.032 | 0.839 ± 0.12 | 0.355 ± 0.13 | 0.95 ± 0.0022 | 0.92 ± 0.062 | 0.648 ± 0.3 | 0.206 ± 0.067 | 0.172 ± 0.068 | 0.0883 ± 0.057
Cc1cc(C(C)Nc2ccccc2)c2nc(N3CCOCC3)cc(=O)n2c1 (stereo not drawn) [TGX-221] | 0.82 ± 0.073 | 0.848 ± 0.018 | 0.96 ± 0.013 | 0.98 ± 0.034 | 0.79 ± 0.15 | 0.822 ± 0.076 | 0.779 ± 0.087 | 0.816 ± 0.083 | 0.826 ± 0.086 | 0.868 ± 0.042 | 0.691 ± 0.19 | 0.868 ± 0.03 | 0.9256 ± 0.0041 | 0.902 ± 0.044 | 0.91 ± 0.02 | 0.891 ± 0.029 | 0.597 ± 0.28 | 0.698 ± 0.093 | 0.681 ± 0.072 | 0.789 ± 0.049 | 0.907 ± 0.034 | 0.963 ± 0.036 | 0.961 ± 0.023 | 0.888 ± 0.03 | 0.914 ± 0.05 | 0.954 ± 0.032 | 1.01 ± 0.021 | 1.02 ± 0.052 | 1.06 ± 0.054 | 1.05 ± 0.026 | 0.968 ± 0.03 | 0.972 ± 0.039 | 0.971 ± 0.027 | 0.964 ± 0.033 | 0.591 ± 0.38 | 0.957 ± 0.08
